Calls of active or inactive are those of the source. The rule behind the calls is not given here.
Tests used:
MONO-MAC-6 [1] = assay: Antiproliferative activity against human MONO-MAC-6 cells assessed as inhibition of cell viability at 10^-8 M after 72 hrs by cell counting method; type: functional; conditions: MONO-MAC-6, 72 h, values are per cent of control
Serum [2] = assay: Metabolic stability in human serum at 10 uM after 24 hrs by LC-MS analysis; type: ADME, cell-free
MONO-MAC-6 [3] = assay: Antiproliferative activity against human MONO-MAC-6 cells assessed as inhibition of cell viability at 10^-8 M after 24 hrs by cell counting method; type: functional; conditions: MONO-MAC-6, 24 h, values are per cent of control
MONO-MAC-6 [4] = assay: Antiproliferative activity against human MONO-MAC-6 cells assessed as inhibition of cell viability at 10^-9 M after 48 hrs by cell counting method; type: functional; conditions: MONO-MAC-6, 48 h, values are per cent of control
MONO-MAC-6 [5] = assay: Antiproliferative activity against human MONO-MAC-6 cells assessed as inhibition of cell viability at 10^-6 M after 48 hrs by cell counting method; type: functional; conditions: MONO-MAC-6, 48 h, values are per cent of control
MCF7 = assay: Cytostatic activity against human MCF7 cells after 4 days by MTT assay; type: functional, cell-based; conditions: MCF7, 96 h
MONO-MAC-6 [6] = assay: Antiproliferative activity against human MONO-MAC-6 cells assessed as cell viability at 10^-6 M after 72 hrs by cell counting method relative to untreated control; type: functional
MONO-MAC-6 [7] = assay: Antiproliferative activity against human MONO-MAC-6 cells assessed as inhibition of cell viability at 10^-6 M after 72 hrs by cell counting method; type: functional; conditions: MONO-MAC-6, 72 h, values are per cent of control
MONO-MAC-6 [8] = assay: Antiproliferative activity against human MONO-MAC-6 cells assessed as inhibition of cell viability at 10^-6 M after 24 hrs by cell counting method; type: functional; conditions: MONO-MAC-6, 24 h, values are per cent of control
MONO-MAC-6 [9] = assay: Antiproliferative activity against human MONO-MAC-6 cells assessed as inhibition of cell viability at 10^-9 M after 72 hrs by cell counting method; type: functional; conditions: MONO-MAC-6, 72 h, values are per cent of control
MONO-MAC-6 [10] = assay: Antiproliferative activity against human MONO-MAC-6 cells assessed as cell viability at 10^-6 M after 24 hrs by cell counting method relative to untreated control; type: functional
MONO-MAC-6 [11] = assay: Induction of adhesion in human MONO-MAC-6 cells at 10^-9 M after 24 hrs by electrical impedence method relative to control; type: functional
MONO-MAC-6 [12] = assay: Induction of adhesion in human MONO-MAC-6 cells after 24 hrs by electrical impedence method; type: functional, cell-based
HT-29 = assay: Cytostatic activity against human HT-29 cells after 4 days by MTT assay; type: functional, cell-based; conditions: HT-29, 96 h
MONO-MAC-6 [13] = assay: Antiproliferative activity against human MONO-MAC-6 cells assessed as inhibition of cell viability at 10^-9 M after 24 hrs by cell counting method; type: functional; conditions: MONO-MAC-6, 24 h, values are per cent of control
MONO-MAC-6 [14] = assay: Antiproliferative activity against human MONO-MAC-6 cells assessed as inhibition of cell viability at 10^-7 M after 72 hrs by cell counting method; type: functional; conditions: MONO-MAC-6, 72 h, values are per cent of control
MONO-MAC-6 [15] = assay: Antiproliferative activity against human MONO-MAC-6 cells assessed as cell viability at 10^-6 M after 48 hrs by cell counting method relative to untreated control; type: functional
LNCaP = assay: Cytostatic activity against human LNCAP cells after 4 days by MTT assay; type: functional, cell-based; conditions: 96 h
MONO-MAC-6 [16] = assay: Antiproliferative activity against human MONO-MAC-6 cells assessed as inhibition of cell viability at 10^-7 M after 24 hrs by cell counting method; type: functional; conditions: MONO-MAC-6, 24 h, values are per cent of control
[17] = Drug metabolism in rat lysosomal homogenate assessed as H-Lys(Dau=Aoa)-OH formation at 0.1 ug/ul after 24 hrs by LC-MS analysis; type: ADME, tissue-based, Lysosome; conditions: tissue homogenate
MONO-MAC-6 [18] = assay: Antiproliferative activity against human MONO-MAC-6 cells assessed as inhibition of cell viability at 10^-7 M after 48 hrs by cell counting method; type: functional; conditions: MONO-MAC-6, 48 h, values are per cent of control
MONO-MAC-6 [19] = assay: Antiproliferative activity against human MONO-MAC-6 cells assessed as inhibition of cell viability at 10^-8 M after 48 hrs by cell counting method; type: functional; conditions: MONO-MAC-6, 48 h, values are per cent of control
MONO-MAC-6 [20] = assay: Induction of adhesion in human MONO-MAC-6 cells at 10^-11 to 10^-12 M after 24 hrs by electrical impedence method relative to control; type: functional, cell-based
MONO-MAC-6 [21] = assay: Antiproliferative activity against human MONO-MAC-6 cells assessed as cell viability at 10^-7 to 10^-6 M after 48 hrs by cell counting method relative to untreated control; type: functional
MONO-MAC-6 [22] = assay: Induction of adhesion in human MONO-MAC-6 cells at 10^-9 to 10^-6 M after 24 hrs by electrical impedence method relative to control; type: functional
MONO-MAC-6 [23] = assay: Antiproliferative activity against human MONO-MAC-6 cells assessed as cell viability at 10^-7 to 10^-6 M after 72 hrs by cell counting method relative to untreated control; type: functional
MONO-MAC-6 [24] = assay: Induction of adhesion in human MONO-MAC-6 cells at 10^-8 to 10^-6 M after 24 hrs by electrical impedence method relative to control; type: functional
[25] = Antitumor activity against mouse C26 cells allografted in Balb/C mouse assessed as tumor growth inhibition; type: functional
MONO-MAC-6 [26] = assay: Antiproliferative activity against human MONO-MAC-6 cells assessed as cell viability at 10^-7 M after 24 hrs by cell counting method relative to untreated control; type: functional
MONO-MAC-6 [27] = assay: Induction of adhesion in human MONO-MAC-6 cells at 10^-7 M after 1.5 hrs by electrical impedence method relative to control; type: functional
MONO-MAC-6 [28] = assay: Antiproliferative activity against human MONO-MAC-6 cells assessed as cell viability at 10^-9 to 10^-6 M after 48 hrs by cell counting method relative to untreated control; type: functional
MONO-MAC-6 [29] = assay: Antiproliferative activity against human MONO-MAC-6 cells assessed as cell viability at 10^-9 to 10^-6 M after 72 hrs by cell counting method relative to untreated control; type: functional
MONO-MAC-6 [30] = assay: Induction of adhesion in human MONO-MAC-6 cells at 10^-7 to 10^-6 M after 24 hrs by electrical impedence method relative to control; type: functional, cell-based
[31] = Drug metabolism in rat lysosomal homogenate assessed as H-Lys(MTX)HDWK(Dau=Aoa)P-OH formation at 0.1 ug/ul after 24 hrs by LC-MS analysis; type: ADME, tissue-based, Lysosome; conditions: tissue homogenate
Serum [32] = assay: Metabolic stability in human serum at 10 uM after 24 hrs by RP-HPLC analysis; type: ADME, cell-free
[33] = Drug metabolism in rat lysosomal homogenate assessed as large peptide fragment EHWK(MTX)HDWK(Ac)-OH formation at 0.1 ug/ul after 24 hrs by LC-MS analysis; type: ADME, tissue-based, Lysosome; conditions: tissue homogenate

Stability (Serum [2]) | IC50 (MCF7) | IC50 (HT-29) | IC50 (LNCaP) | SMILES | viability, % of control at 0.01 µM (MONO-MAC-6 [1]) | viability, % of control at 0.01 µM (MONO-MAC-6 [3]) | viability, % of control at 0.001 µM (MONO-MAC-6 [4]) | viability, % of control at 1 µM (MONO-MAC-6 [5]) | Ratio (MONO-MAC-6 [6]) | viability, % of control at 1 µM (MONO-MAC-6 [7]) | viability, % of control at 1 µM (MONO-MAC-6 [8]) | viability, % of control at 0.001 µM (MONO-MAC-6 [9]) | Ratio (MONO-MAC-6 [10]) | Activity (MONO-MAC-6 [11]) | viability, % of control at 0.001 µM (MONO-MAC-6 [13]) | viability, % of control at 0.1 µM (MONO-MAC-6 [14]) | Ratio (MONO-MAC-6 [15]) | viability, % of control at 0.1 µM (MONO-MAC-6 [16]) | viability, % of control at 0.1 µM (MONO-MAC-6 [18]) | viability, % of control at 0.01 µM (MONO-MAC-6 [19]) | also measured
Stable | 5.8 µM | 3.6 µM | 28.8 µM | COc1cccc2c1C(=O)c1c(O)c3c(c(O)c1C2=O)C[C@@](O)(/C(C)=N/OCC(=O)NCCCC[C@H](NC(=O)[C@H](Cc1c[nH]c2ccccc12)NC(=O)[C@H](CC(=O)O)NC(=O)[C@H](Cc1cnc[nH]1)NC(=O)[C@H](CCCCNC(=O)[C@H](CCC(=O)O)NC(=O)c1ccc(N(C)Cc2cnc4nc(N)nc(N)c4n2)cc1)NC(=O)[C@H](Cc1c[nH]c2ccccc12)NC(=O)[C@H](Cc1cnc[nH]1)NC(=O)[C@@H]1CCC(=O)N1)C(=O)N1CCC[C@H]1C(=O)NCC(N)=O)C[C@@H]3O[C@H]1C[C@H](N)[C@H](O)[C@H](C)O1 | 103% | 103% | 89% | 86% | 0.95 | 76% | 88% | 81% | 1.06 | 135% | 108% | 104% | 0.98 | 98% | 94% | 92% | Activity (MONO-MAC-6 [12]): Dose-dependent effect; Drug metabolism [17]: Active
 |  | 1.4 µM | 0.3 µM | CN(Cc1cnc2nc(N)nc(N)c2n1)c1ccc(C(=O)N[C@@H](CCC(=O)O)C(=O)O)cc1 [METHOTREXATE] | 60% | 102% | 97% | 52% | 0.77 | 29% | 80% | 96% | 0.95 |  | 101% | 27% |  | 89% | 52% | 94% | Activity (MONO-MAC-6 [20]): Active; Ratio (MONO-MAC-6 [21]): 0.98; Activity (MONO-MAC-6 [22]): 140%; Ratio (MONO-MAC-6 [23]): 0.76
 | 0.4 µM | 0.2 µM | 0.1 µM | COc1cccc2c1C(=O)c1c(O)c3c(c(O)c1C2=O)C[C@@](O)(C(C)=O)C[C@@H]3O[C@H]1C[C@H](N)[C@H](O)[C@H](C)O1 [DAUNORUBICIN] | 17% | 95% | 36% | 27% |  | 16% | 46% | 21% |  |  | 97% | 14% |  | 59% | 26% | 35% | Activity (MONO-MAC-6 [24]): 121%; growth inhibition (GI) [25]: 24.4%; Ratio (MONO-MAC-6 [26]): 0.85; Activity (MONO-MAC-6 [27]): 142%; Ratio (MONO-MAC-6 [28]): 0.45; Ratio (MONO-MAC-6 [29]): 0.49
Stable | 5.4 µM | 5.6 µM | 11.3 µM | COc1cccc2c1C(=O)c1c(O)c3c(c(O)c1C2=O)C[C@@](O)(/C(C)=N/OCC(=O)NCCCC[C@H](NC(=O)[C@H](CCC(=O)O)NC(=O)c1ccc(N(C)Cc2cnc4nc(N)nc(N)c4n2)cc1)C(=O)NCCCC[C@H](NC(=O)[C@H](Cc1c[nH]c2ccccc12)NC(=O)[C@H](CC(=O)O)NC(=O)[C@H](Cc1cnc[nH]1)NC(=O)[C@H](CO)NC(=O)[C@H](Cc1c[nH]c2ccccc12)NC(=O)[C@H](Cc1cnc[nH]1)NC(=O)[C@@H]1CCC(=O)N1)C(=O)N1CCC[C@H]1C(=O)NCC(N)=O)C[C@@H]3O[C@H]1C[C@H](N)[C@H](O)[C@H](C)O1 | 97% | 128% | 93% | 63% | 0.77 | 38% | 82% | 99% | 1 | 77.6% | 116% | 94% | 0.9 | 105% | 97% | 91% | Activity (MONO-MAC-6 [30]): inactive; Drug metabolism [31]: Active
 | > 50 µM | > 50 µM | > 50 µM | CC(=O)NCCCC[C@H](NC(=O)[C@H](Cc1c[nH]c2ccccc12)NC(=O)[C@H](CC(=O)O)NC(=O)[C@H](Cc1cnc[nH]1)NC(=O)[C@H](CCCCNC(=O)[C@H](CCC(=O)O)NC(=O)c1ccc(N(C)Cc2cnc3nc(N)nc(N)c3n2)cc1)NC(=O)[C@H](Cc1c[nH]c2ccccc12)NC(=O)[C@H](Cc1cnc[nH]1)NC(=O)[C@@H]1CCC(=O)N1)C(=O)N1CCC[C@H]1C(=O)NCC(N)=O |  |  |  |  |  |  |  |  |  |  |  |  |  |  |  |  | Stability (Serum [32]): Stable; Drug metabolism [33]: Active

Reference: ChEMBL document CHEMBL2021806, “GnRH-III based multifunctional drug delivery systems containing daunorubicin and methotrexate” (Eur J Med Chem, 2012)
